Where a name gives a salt, the structure may show the parent alone.
Key:
HCT116 [1] = assay: AC50 cell viability (CellTiter-Glo); higher = less potent; conditions: 48 h
HCT116 [2] = assay: efficacy (fitted maximal change in viability relative to DMSO control); higher = less cytotoxic (negative = loss of viability); conditions: 48 h
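Wherever AC50 cell viability (CellTiter-Glo) is given: HCT116 colorectal carcinoma cells screened at five concentrations per compound, luminescent viability scaled between DMSO wells and empty wells on each plate, curves fitted per compound.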
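Wherever efficacy (fitted maximal change in viability relative to DMSO control) is given: Luminescence-based viability readout, five doses per compound, normalized against on-plate DMSO and empty-well controls, followed by dose-response curve fitting for every drug.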

| Structure (SMILES) | AC50 cell viability (HCT116 [1]) | efficacy (HCT116 [2]) |
| --- | --- | --- |
| O[C@H]1CC[C@@H](Oc2cccc3cnc(Nc4ccc5nc[nH]c5c4)nc23)CC1 [NCB-1026] | 0.525 µM | -64.6% |
| COc1ccc(Nc2cc(-c3cnc(N)nc3)nc(N3CCOCC3)n2)cn1 [NIBR-17] | 2.63 µM | -65.5% |
| [O-][S+]1(=O)/N=C(/NC2=CC(=CC=C2)NC(=O)CCl)C3=CC=CC=C13 [NMS-859] | 26.3 µM | -85.1% |
| Cc1cc(OCc2nnc(SC3CCCC3)n2-c2cccnc2)ccc1-c1ccc([S+](C)(=O)[O-])cc1 [NMS-873] | 1.48 µM | -104% |
| CN1CCN(c2ccc(OC(F)(F)F)c(Nc3ncc4c(n3)-c3c(c(C(N)=O)nn3CCO)CC4)c2)CC1 [NMS-P937] | 0.0661 µM | -63.9% |
| CN\1N(C(=O)\C(=C1C)C(=O)NC2=CC=C(OC3=CC=NC4=C3C(=C[NH]4)C5=CC=CC=C5)C(=C2)F)C6=CC=C(F)C=C6 [NPS-1034] | 14.8 µM | -59.9% |
| CC(C)(Cc1ccc2ccccc2c1)NC[C@@H](O)COc1cccc(Cl)c1C#N [NPS-2143] | 9.34 µM | -97.5% |
| COc1cccc([C@@H](C)NCCCc2ccccc2Cl)c1 [NPS-R568] | 23.5 µM | -99.8% |
| Nc1nc(N)c(N=O)c(OCC2CCCCC2)n1 [NU-6027] | 13.2 µM | -64.3% |
| N[S+](=O)([O-])c1ccc(Nc2nc(OCC3CCCCC3)c3[nH]cnc3n2)cc1 [NU-6102] | 16.6 µM | -92.8% |
| O=C1\C=C(OC2=C(C=CC=C12)C3=CC=CC4=C3SC5=C4C=CC=C5)\N6CCOCC6 [NU-7441] | 3.72 µM | -76.8% |
| Nc1ncnc2c1c(-c1cccc(OCc3ccccc3)c1)cn2[C@H]1C[C@@H](CN2CCC2)C1 [NVP-AEW541] | 5.9 µM | -85.2% |
| CCNC(=O)c1noc(-c2cc(C(C)C)c(O)cc2O)c1-c1ccc(CN2CCOCC2)cc1 [NVP-AUY922] | 0.105 µM | -63.2% |
| COc1ccc(-c2ccc3ncc4c(c3c2)n(-c2ccc(N3CCNCC3)c(C(F)(F)F)c2)c(=O)n4C)cn1 [NVP-BGT226] | 0.295 µM | -117% |
| Cc1ccc(C(=O)Nc2cccc(C(F)(F)F)c2)cc1Nc1nc(-c2cccnc2)nc2c1cnn2C [NVP-BHG712] | 8.33 µM | -103% |
| Fc1cc(-c2cccc3ncc(-c4cnn(C5CCNCC5)c4)nc23)cc(F)c1CN1CCOCC1 [NVP-BSK805] | 8.33 µM | -91% |
| Cn1cc(-c2ccc3ncc(Cc4ccc5ncccc5c4)n3n2)cn1 [NVP-BVU-972] | 18.6 µM | -40.8% |
| C[S+](=O)([O-])N1CCC(NC(=O)c2[nH]ncc2NC(=O)c2c(Cl)cccc2Cl)CC1 [NVP-LCQ195] | 0.525 µM | -64.2% |
| CNC(=O)c1ccccc1Nc1nc(Nc2ccc(N3CCOCC3)cc2OC)ncc1Cl [NVP-TAE226] | 0.833 µM | -77.8% |
| CCC[S+](=O)([O-])c1nc(NC2CC2)cc(-c2ccc3c(ccn3C3CC(C)(C)NC(C)(C)C3)c2)n1 [NVS-CECR2-1] | 2.78 µM | -93.7% |

| Structure (SMILES) | AC50 cell viability (HCT116 [1]) | efficacy (HCT116 [2]) |
| --- | --- | --- |
| COc1ccccc1N1CCN(CC(O)COc2cccc3ccccc23)CC1 (stereo not given) [Naftopidil] | 18.6 µM | -57.2% |
| CNC(=O)[C@H]1O[C@@H](n2cnc3c(NCc4cccc(I)c4)nc(Cl)nc32)[C@H](O)[C@@H]1O [Namodenoson] | 23.5 µM | -94.8% |
| CO[C@H]1CCC(O[C@H]2C[C@H]([C@]3(C)CC[C@]4(C[C@H](O)[C@@H](C)[C@@H]([C@@H](C)/C=C(\C)C(=O)[C@H](C)C[C@H](C)C(=O)[O-])O4)O3)O[C@]3(O[C@@H]([C@H]4O[C@@](O)(CO)[C@H](C)C[C@@H]4C)C[C@@H]3C)[C@@H]2C)O[C@@H]1C (stereo not given in full) [Nanchangmycin] | 2.95 µM | -101% |
| CC(=O)c1cc2c(o1)C(=O)c1ccccc1C2=O [Napabucasin] | 0.934 µM | -93.8% |
| C=CC(=O)N1CC[C@@H](Oc2nc(Nc3ccc(N4CCC(N5CCN(C)CC5)CC4)cc3)c(C(N)=O)nc2CC)C1 [Naquotinib mesylate] | 3.23 µM | -103% |
| CC1(C)CCC(=C(CN2CCN(CC2)C3=CC=C(C=C3)C(=O)N[S+]([O-])(=O)C4=CC(=C(N[C@H](CCN5CCOCC5)CSC6=CC=CC=C6)C=C4)[S+]([O-])(=O)C(F)(F)F)\C1)/C7=CC=C(Cl)C=C7 [Navitoclax (ABT-263)] | 13.2 µM | -90.7% |
| Cc1c(O)cccc1C(=O)NC(CSc1ccccc1)C(O)CN1CC2CCCCC2CC1C(=O)NC(C)(C)C (stereo not given) [Nelfinavir] | 20.9 µM | -101% |
| COc1cccc2c1C(=O)c1c(O)c3c(c(O)c1C2=O)C[C@@](O)(C(=O)CO)CC3OC1CC(N2CCOC(OC)C2)C(O)C(C)O1 (stereo not given in full) [Nemorubicin] | 0.0263 µM | -66% |
| CCOc1cc2ncc(C#N)c(Nc3ccc(OCc4ccccn4)c(Cl)c3)c2cc1NC(=O)/C=C/CN(C)C [Neratinib] | 2.35 µM | -72.5% |
| Cc1ccc(C(=O)OCc2ccc([C@@H](CN)C(=O)Nc3ccc4cnccc4c3)cc2)c(C)c1 [Netarsudil] | 8.11 µM | -108% |
| O=C(Nc1ccc([N+](=O)[O-])cc1Cl)c1cc(Cl)ccc1O [Niclosamide] | 1.05 µM | -90.8% |
| COC(=O)C/1=C(C)/N/C(=C(\C1C2=CC(=CC=C2)[N+]([O-])=O)C(=O)OCCCN3CCC(CC3)(C4=CC=CC=C4)C5=CC=CC=C5)C (stereo not given) [Niguldipine] | 8.33 µM | -98.1% |
| Cc1cn(-c2cc(NC(=O)c3ccc(C)c(Nc4nccc(-c5cccnc5)n4)c3)cc(C(F)(F)F)c2)cn1 [Nilotinib] | 1.66 µM | -46.8% |
| COC(=O)c1ccc2c(c1)NC(=O)/C2=C(\Nc1ccc(N(C)C(=O)CN2CCN(C)CC2)cc1)c1ccccc1 [Nintedanib] | 5.9 µM | -92.2% |
| NC(=O)c1cccc2cn(-c3ccc([C@@H]4CCCNC4)cc3)nc12 [Niraparib] | 18.6 µM | -92% |
| CCC[C@H](N[C@H]1CCc2cc(F)cc(F)c2C1)C(=O)Nc1cn(C(C)(C)CNCC(C)(C)C)cn1 [Nirogacestat] | 20.9 µM | -90.3% |
| CC(=O)Oc1ccccc1C(=O)Nc1ncc([N+](=O)[O-])s1 [Nitazoxanide] | 23.5 µM | -80.3% |
| O=[N+]([O-])c1ccc(O)c2ncccc12 [Nitroxoline] | 10.5 µM | -96.2% |
| COC(=O)Nc1nc2cc(C(=O)c3cccs3)ccc2[nH]1 [Nocodazole] | 0.166 µM | -65.7% |
| COc1ccc2c(c1OC)C(=O)O[C@H]2[C@H]1c2c(cc3c(c2OC)OCO3)CCN1C [Noscapine] | 14.8 µM | -55.1% |

— the supplement of paper PMC10290057
